Patent US20250361217A1, “FATTY ACID COMPOUNDS” (University of Pittsburgh - Of the Commonwealth System of …, priority 2022, published 2025)

What was measured:
[1] = Cassette PK of branched vs straight-chain FA-AA (NAA) conjugates, oral or intraperitoneal; assay type: in vivo, mice; conditions: 30 mg/kg; for levels in liver, rank among the groups / levels in plasma, rank among the groups: both intraperitoneal and oral administration
Method: A library of branched fatty acid-amino acid (FA-AA) conjugates was synthesized, exemplified in the table above. […] The absorption of the selected straight chain vs. branched FA-AA conjugates was compared in a cassette PK study as described below in more detail. A mixture of all the FA-AA conjugates (with or without branching) was concomitantly administered orally to mice (n=4-5, 30 mg/kg each compound). […] The absorption improvement resulting from the branching of the fatty acids was ubiquitous across all the FA-AA conjugates independent of the choice of amino acids. In contrast, all tested FA-AA conjugated dosed intraperitoneally (n=4-5, 30 mg/kg each compound) reached significant levels in circulation, bypassing the first-pass metabolism.
Two cassette PK experiments were performed to compare the pharmacokinetics of dimethyl acyl amino acids (acyl-2M-amino acids) with their natural, non-branched analogs and evaluate the increased half-life, oral bioavailability, and liver concentrations obtained by the invention (introduction of the dimethyl (2M) branching).
Groups of mice (n=4 per time point per group) were used. The compounds were delivered using a cassette pharmacokinetic design by oral gavage or by intraperitoneal injections at a dose of 30 mg/kg. Groups are detailed in table 1. To note, the methyl ester of C18:0-2M-Gly was abbreviated as C18:0-2M-Gly-Me.
The following groups were used, and the time points were 0, 1, 2, and 4 h for intraperitoneal administration and 0, 2, and 4 h for oral administration.

[2] = tested on: C57BL6 mice fed with the NASH diet; test: Oral treatment in established NASH mouse model; assay type: in vivo; conditions: oral 10 mg/kg/day, 6 weeks
Method: This study defined the protective properties of branched FA-AA conjugates and the enhanced potency of 11U3-2M conjugated to Leucine (Leu) when administered orally in an established NASH mouse model. C57BL6 mice were fed with the NASH diet for 16 weeks and then orally administered with vehicle (n=10), C18:1-Leu (n=10), C18:1-2M-Leu (n=8) and 11U3-2M-Leu (n=12) (10 mg/kg/day) for 6 weeks while on the NASH diet. Mice were sacrificed and organs were collected for further analysis.

[3] = tested on: mice with established NASH; conditions: intraperitoneal administration; cited from earlier work

| Compound | levels in liver, rank among the groups [1] | levels in plasma, rank among the groups [1] | expression of genes regulating lipogenesis in liver [2] | fibrosis and cell death genes (e.g., collagens and TGF-b) in liver [2] | plasma alanine transaminase (ALT) [2] | plasma aspartate transaminase (AST) [2] | also measured |
| --- | --- | --- | --- | --- | --- | --- | --- |
| CCCc1ccc(CCCCCCCCCC(C)(C)C(=O)NCC(=O)O)o1 [11U3-2M-Gly, (2,2-Dimethyl-11-(5-propylfuran-2-yl)undecanoyl)glycine] | highest levels | highest levels | – | – | – | – | – |
| CCCc1ccc(CCCCCCCCCC(C)(C)C(=O)NC(CC(C)C)C(=O)O)o1 (stereo not shown) [11U3-2M-Leu] | highest levels | highest levels | suppressed | anti-fibrotic actions | significantly decreased | significantly decreased | plasma concentration over time (resistance to metabolism) vs 11U3-Leu ([1]; mice): maintained over a longer period; AUC0-4 vs all the straight-chain analogs ([1]; intraperitoneal): significantly higher; Cmax vs all the straight-chain analogs ([1]; intraperitoneal): significantly higher; metabolism vs all the straight-chain analogs ([1]; intraperitoneal): slower metabolism; cholesterol levels [2]: significantly decreased; expression of key genes regulating fatty acid oxidation (PPARα signaling pathway) in liver [2]: significantly induced; inflammatory effect in the NASH animals (FIG. 23) [2]: anti-inflammatory; liver weight in comparison to vehicle control [2]: significant decrease; liver/body weight ratio in comparison to vehicle control [2]: significant decrease |
| CCCCCCCCC=CCCCCCCC(C)(C)C(=O)N[C@@H](CC(C)C)C(=O)O [C18:1-2M-Leu, (2,2-dimethyloctadec-9-enoyl)leucine] | – | – | suppressed | anti-fibrotic actions | significantly decreased | significantly decreased | – |
| CCCCCCCC/C=C\CCCCCCCC(=O)N[C@@H](CC(C)C)C(=O)O [C18:1-Leu, N-oleoyl leucine] | – | – | – | – | – | – | steatosis, inflammation and fibrosis in mice with established NASH [3]: improved steatosis, and lowered inflammation and fibrosis |
